Test [1] relates to A08 (DNA, aptamer) AGCCTCGTCTGTTCTCCCGGCAGTGTGGGCGAATCTATGCGTACCGTTCGATATCGTGGGGAAGACAAGCAGACGT
As to the kind of experiment: gold nanoparticle aggregation. Conditions: 0.5 M NaCl added last; in water; OTA 0.2 to 70 nM.

The subject of test [2] is A08 (5'-FAM) (DNA, aptamer) AGCCTCGTCTGTTCTCCCGGCAGTGTGGGCGAATCTATGCGTACCGTTCGATATCGTGGGGAAGACAAGCAGACGT
Briefly: microscale thermophoresis. The note with it: 137 mM NaCl, 2.7 mM KCl; 10 mM Na2HPO4, 2 mM KH2PO4, pH 7.4, 25 °C. On the technique in general: In MST a laser heats a spot of the sample, and binding alters the fluorescence response.

The test system of test [3] is A08 (DNA, aptamer) AGCCTCGTCTGTTCTCCCGGCAGTGTGGGCGAATCTATGCGTACCGTTCGATATCGTGGGGAAGACAAGCAGACGT
As to the kind of experiment: SYBR Green I displacement. Conditions: 137 mM NaCl, 2.7 mM KCl; 10 mM Na2HPO4, 2 mM KH2PO4, pH 7.4; OTA 0.2 to 70 nM.

The subject of test [4] is 1.12.2 (5'-FAM) (DNA, aptamer) GATCGGGTGTGGGTGGCGTAAAGGGAGCATCGGACA
Briefly: microscale thermophoresis (raw fluorescence, quenching). The note with it: 120 mM NaCl, 5 mM KCl, 10 mM CaCl2; 10 mM HEPES, pH 7.0, 25 °C; raw fluorescence quenching analysed, may have skewed KD.

Test [5] deals with 1.12.2 (DNA, aptamer) GATCGGGTGTGGGTGGCGTAAAGGGAGCATCGGACA
As to the kind of experiment: gold nanoparticle aggregation. Conditions: 0.5 M NaCl added last; in water; OTA 0.2 to 70 nM.

Test [6] deals with H8 (5'-FAM) (DNA, aptamer) GGGAGGACGAAGCGGAACTGGGTGTGGGGTGATCAAGGGAGTAGACTACAGAAGACACGCCCGACA
As to the kind of experiment: microscale thermophoresis. Conditions: 137 mM NaCl, 2.7 mM KCl, 1 mM MgCl2; 10 mM Na2HPO4, 2 mM KH2PO4, pH 7.4, 25 °C.

Test [7] concerns A08min (5'-FAM) (DNA, aptamer) GGCAGTGTGGGCGAATCTATGCGTACCGTTCGATATCGTG
As to the kind of experiment: microscale thermophoresis. The note with it: 137 mM NaCl, 2.7 mM KCl; 10 mM Na2HPO4, 2 mM KH2PO4, pH 7.4, 25 °C.

For test [8], the system named is 1.12.2 (DNA, aptamer) GATCGGGTGTGGGTGGCGTAAAGGGAGCATCGGACA
As to the kind of experiment: SYBR Green I displacement. The note with it: 120 mM NaCl, 5 mM KCl, 10 mM CaCl2; 10 mM HEPES, pH 7.0; OTA 0.2 to 70 nM.

The subject of test [9] is H12 (5'-FAM) (DNA, aptamer) GGGAGGACGAAGCGGAACCGGGTGTGGGTGCCTTGATCCAGGGAGTCTCAGAAGACACGCCCGACA
Briefly: microscale thermophoresis. Conditions: 137 mM NaCl, 2.7 mM KCl, 1 mM MgCl2; 10 mM Na2HPO4, 2 mM KH2PO4, pH 7.4, 25 °C.

In test [10] the test system is A08min (DNA, aptamer) GGCAGTGTGGGCGAATCTATGCGTACCGTTCGATATCGTG
Briefly: SYBR Green I displacement. Conditions: 137 mM NaCl, 2.7 mM KCl; 10 mM Na2HPO4, 2 mM KH2PO4, pH 7.4; OTA 0.2 to 70 nM.

For test [11] the test system is unchanged. Briefly: gold nanoparticle aggregation. The note with it: 0.5 M NaCl added last; in water; OTA 0.2 to 70 nM.

This passage reports binding and KD results from article PMC5127132 (2016).

By KD is commonly meant the concentration at which binding is half-saturated. Higher therefore signals weaker binding.

For `C[C@@H]1Cc2c(Cl)cc(C(=O)N[C@@H](Cc3ccccc3)C(=O)O)c(O)c2C(=O)O1`, the binding entry in test [1], in test [3], in [5], in test [8], in test [10] and in test [11] was “yes” throughout. Also, the KD in [2] is 0.2326 ± 0.0806 µM; in test [4], 0.5248 ± 0.1478 µM; in test [6] it was 0.4161 ± 0.119 µM; in test [7] it was 0.0965 ± 0.0333 µM; in [9] it was 0.6295 ± 0.0797 µM.
